Source: BindingDB's records for patent US9670191 (Nerviano Medical Sciences, 2017)

These compounds were tested against T1, Cell division cycle 7-related protein kinase [58-574]/Protein DBF4 homolog A (Homo sapiens, UniProt O00311) (assay: Inhibition Assay of Cdc7 Activity).
T1 construct: 58-574
Description: The assay consists of the transfer of radioactivity labeled phosphate moiety by the kinase to an acceptor substrate. The resulting 33P-labeled product is separated from unreacted tracer, transferred into a scintillation cocktail and light emitted is measured in a scintillation counter. The inhibition assay of Cdc7/Dbf4 activity is performed according to the following protocol. The MCM2 substrate is trans-phosphorylated by the Cdc7/Dbf4 complex in the presence of ATP traced with γ33-ATP. The reaction is stopped by addition of Dowex resin in the presence of formic acid. Dowex resin particles capture unreacted γ33-ATP and drag it to the bottom of the well while 33P phosphorylated MCM2 substrate remains in solution. The supernatant is collected, transferred into Optiplate plates and the extent of substrate phosphorylation is evaluated by β counting. The inhibition assay of Cdc7/Dbf4 activity was performed in 96 wells plate according to the following protocol.

T1 sequence (O00311 58-574): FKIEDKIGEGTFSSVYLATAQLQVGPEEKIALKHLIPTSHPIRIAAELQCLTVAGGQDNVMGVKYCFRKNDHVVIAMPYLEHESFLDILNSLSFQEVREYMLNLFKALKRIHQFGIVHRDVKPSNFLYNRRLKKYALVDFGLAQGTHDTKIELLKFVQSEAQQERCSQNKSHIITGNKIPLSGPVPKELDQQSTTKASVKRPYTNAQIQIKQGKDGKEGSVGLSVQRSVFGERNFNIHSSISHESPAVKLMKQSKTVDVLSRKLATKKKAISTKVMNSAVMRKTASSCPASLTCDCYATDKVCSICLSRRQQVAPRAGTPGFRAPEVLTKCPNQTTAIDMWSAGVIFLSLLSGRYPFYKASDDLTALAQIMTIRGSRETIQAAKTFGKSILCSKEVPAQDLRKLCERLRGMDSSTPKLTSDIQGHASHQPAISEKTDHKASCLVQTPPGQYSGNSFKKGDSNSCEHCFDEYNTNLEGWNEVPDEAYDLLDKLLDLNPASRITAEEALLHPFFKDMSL
T1 sequence (Q9UBU7 whole entry, further chain): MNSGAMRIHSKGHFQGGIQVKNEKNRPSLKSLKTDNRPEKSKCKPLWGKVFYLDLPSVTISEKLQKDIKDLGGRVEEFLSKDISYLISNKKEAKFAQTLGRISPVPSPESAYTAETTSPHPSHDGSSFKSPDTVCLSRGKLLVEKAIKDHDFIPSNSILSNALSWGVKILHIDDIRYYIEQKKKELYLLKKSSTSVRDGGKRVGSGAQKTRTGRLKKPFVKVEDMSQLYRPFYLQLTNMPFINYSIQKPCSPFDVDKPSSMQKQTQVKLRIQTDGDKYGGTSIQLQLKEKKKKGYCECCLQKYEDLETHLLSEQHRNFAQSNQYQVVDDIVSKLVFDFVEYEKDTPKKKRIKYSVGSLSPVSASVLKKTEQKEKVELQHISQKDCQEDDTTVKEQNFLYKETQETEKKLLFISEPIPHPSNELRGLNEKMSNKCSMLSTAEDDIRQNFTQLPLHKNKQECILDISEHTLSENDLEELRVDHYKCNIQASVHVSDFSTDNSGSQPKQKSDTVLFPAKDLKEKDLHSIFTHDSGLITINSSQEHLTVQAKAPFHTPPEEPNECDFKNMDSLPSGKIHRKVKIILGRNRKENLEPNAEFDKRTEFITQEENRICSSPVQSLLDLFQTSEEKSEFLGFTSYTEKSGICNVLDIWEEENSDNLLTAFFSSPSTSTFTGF

IC50, < 1000 nM:
NC(=O)c1cc(-c2ccncc2)[nH]c1-c1ccccc1[N+](=O)[O-] [US9670191, A13]
NC(=O)c1cc(-c2ccncc2)[nH]c1-c1cccc([N+](=O)[O-])c1 [US9670191, A14]
NC(=O)c1cc(-c2ccncc2)[nH]c1-c1ccc([N+](=O)[O-])cc1 [US9670191, A15]
N#Cc1cccc(-c2[nH]c(-c3ccncc3)cc2C(N)=O)c1 [US9670191, A23]
NC(=O)c1cc(-c2ccncc2)[nH]c1-c1ccncc1 [US9670191, C3]
NC(=O)c1cc(-c2ccnc(N)n2)[nH]c1-c1cccc2ccccc12 [US9670191, F5]
NC(=O)c1cc(-c2ccnc(N)n2)[nH]c1-c1ccc2ccccc2c1 [US9670191, F6]
NC(=O)c1cc(-c2ccnc(N)n2)[nH]c1-c1cccs1 [US9670191, G2]
NC(=O)c1cc(-c2ccnc(N)n2)[nH]c1-c1cc2ccccc2s1 [US9670191, G5]
NC(=O)c1cc(-c2ccnc(N)n2)[nH]c1-c1csc2ccccc12 [US9670191, G6]
NC(=O)c1cc(-c2ccnc(N)n2)[nH]c1-c1cc2ccccc2o1 [US9670191, G9]
NC(=O)c1cc(-c2ccnc(N)n2)[nH]c1-c1ccccn1 [US9670191, G12]
Cn1cc(-c2[nH]c(-c3ccnc(N)n3)cc2C(N)=O)c2ccccc21 [US9670191, G13]
Cn1c(-c2[nH]c(-c3ccnc(N)n3)cc2C(N)=O)cc2ccccc21 [US9670191, G14]
NC(=O)c1cc(-c2ccnc(N)n2)[nH]c1-c1ccc2sccc2c1 [US9670191, G15]
CNC(=O)c1cc(-c2ccnc(N)n2)[nH]c1-c1ccccc1 [US9670191, M1]
NC(=O)c1c(-c2ccccc2)[nH]c(-c2ccnc(N)n2)c1I [US9670191, N3]
C=Cc1c(-c2ccnc(N)n2)[nH]c(-c2ccccc2)c1C(N)=O [US9670191, O1]
NC(=O)c1c[nH]c(-c2ccncc2)c1 [US9670191, P1]
NC(=O)c1cc(-c2ccncc2)[nH]c1C1CCCCC1 [US9670191, Q1]
CC(C)(C)OC(=O)N1CCC(c2[nH]c(-c3ccncc3)cc2C(N)=O)CC1 [US9670191, Q2]
NC(=O)c1cc(-c2ccncc2)[nH]c1C1CCNCC1 [US9670191, Q3]
NC(=O)c1cc(-c2ccncc2)[nH]c1Br [US9670191, R1]
NC(=O)c1cc(-c2ccnc(N)n2)sc1-c1ccccc1 [US9670191, S1]
NC(=O)c1cc(-c2ccnc(N)n2)oc1-c1ccccc1 [US9670191, T1]
NC(=O)c1cc(-c2nc(N)ncc2F)[nH]c1-c1ccccc1 [US9670191, V1]
NC(=O)c1c(-c2ccccc2)[nH]c(-c2ccnc(N)n2)c1Cl [US9670191, Z1]
